Source: patent US10413559B2, “Method for treating demyelinating disease” (OCHANOMIZU UNIVERSITY, priority 2013, dated 2019)

How the values were obtained:
[1] = test system: demyelination model mice (0.2% cuprizone); assay: Myelin level by Black Gold staining in cuprizone demyelination model mice (Example 1); assay type: in vivo, C57BL/6 mice; conditions: intraperitoneal 40 μg/200 μl saline/day for 5 weeks, FIG. 2
Description: 10-week-old male C57BL/6 mice were fed with a mash feed containing 0.2% cuprizone for five weeks until the most significant demyelination occurred, so as to produce demyelination model mice. cPA and carba-cPA (cPA) powders were each dissolved in a saline, and the obtained solutions were each administered intraperitoneally at a dose of 40 μg/200 μl saline/day to the mice every day for 5 weeks. On the other hand, to negative control mice, a saline (200 μl/day) was intraperitoneally administered in the same manner as described above. The mice, to which the test compound had been administered, were subjected to perfusion fixation with 4% paraformaldehyde, and sections to be used for frozen tissue staining (30 μm) were then prepared in a cryostat (FIG. 1). The level of myelin in each mouse was measured by Black Gold staining, and the demyelination level was then measured based on the stained level (FIG. 2).

[2] = test system: demyelination model mice (0.2% cuprizone), corpus callosum; assay: Histological staining (Black Gold II) of corpus callosum and evaluation of demyelination (Example 2); assay type: in vivo, C57BL/6j mice; conditions: intraperitoneal 1.6 mg/kg/day for 5 weeks, FIG. 3, FIG. 4
Text: 10-week-old male C57BL/6j mice (Tokyo Laboratory Animals Science Co., Ltd., Tokyo, Japan) were fed by the discretionary intake of a mash feed (CLEA Japan, Inc.) that contained 0.2% cuprizone (biscyclohexanone oxalyl hydrazone; Merck KGaA, Darmstadt, Germany) for 5 weeks until demyelination progressed most, so as to produce demyelination model mice involving demyelination caused by oligodendrocyte-specific cell death. To obtain tissues to be used for histological analysis, a mouse was subjected to perfusion fixation through the heart with 4% paraformaldehyde, and the resulting brain tissues were then excised from the mouse. Thereafter, the tissues were immobilized and infiltrated with 30% sucrose. Thereafter, a frozen tissue block was prepared and was then sliced in a cryostat. The cPA used in the experiment was the same cPA (16:0) as that used in Example 1, and the carba-cPA was 2 ccPA (16:1). The cPA and 2 ccPA were chemically purified (Biochimica et Biophysica Acta, Emi Nozaki 2011), and were then dissolved in a 0.9% saline. […] For the analysis of the level of myelin, using Image J 1.46r software, the stained level in the corpus callosum area was measured, and the demyelination level was then evaluated, while setting the control as 100%.

[3] = test system: GFAP, Iba1, PDGFRa, P2rx7, Nlrp3 gene expression in corpus callosum; assay: Genetic analysis using Q-PCR of corpus callosum tissues; assay type: in vivo, C57BL/6j mice; conditions: cuprizone mice; intraperitoneal 1.6 mg/kg/day for 5 weeks; FIG. 6-8
Text: 10-week-old male C57BL/6j mice (Tokyo Laboratory Animals Science Co., Ltd., Tokyo, Japan) were fed by the discretionary intake of a mash feed (CLEA Japan, Inc.) that contained 0.2% cuprizone (biscyclohexanone oxalyl hydrazone; Merck KGaA, Darmstadt, Germany) for 5 weeks until demyelination progressed most, so as to produce demyelination model mice involving demyelination caused by oligodendrocyte-specific cell death.
To obtain mouse corpus callosum tissues to be used for genetic analysis, mouse brain was removed, and the corpus callosum tissues were then collected from the brain. […]
mRNA was extracted from the frozen corpus callosum tissues using ISOGEN (Nippon Gene Co., Ltd., Tokyo, Japan), was then dissolved in RNase free molecular grade water (Takara Bio Inc., Shiga, Japan), and was then preserved at −80° C. […] Gene expression was detected using 7900 Sequence Detection System (Applied Biosystems). […] The gene expression level was calculated by a ΔΔCT method. Data were analyzed by a relative quantification method. A relative change in the gene expression was analyzed, while setting the gene expression level in a control mouse at 100%.

[4] = test system: demyelination model mice (0.2% cuprizone); assay: Test of motor function impairment using rotarod; assay type: in vivo, C57BL/6j mice; conditions: intraperitoneal 1.6 mg/kg/day for 5 weeks, 28 rpm, 300 seconds, FIG. 9, FIG. 10
Text: 10-week-old male C57BL/6j mice (Tokyo Laboratory Animals Science Co., Ltd., Tokyo, Japan) were fed by the discretionary intake of a mash feed (CLEA Japan, Inc.) that contained 0.2% cuprizone (biscyclohexanone oxalyl hydrazone; Merck KGaA, Darmstadt, Germany) for 5 weeks until demyelination progressed most, so as to produce demyelination model mice involving demyelination caused by oligodendrocyte-specific cell death. The cPA used in the experiment was the same cPA (16:0) as that used in Example 1, and the carba-cPA was 2 ccPA (16:1). The cPA and 2 ccPA were chemically purified (Biochimica et Biophysica Acta, Emi Nozaki 2011), and were then dissolved in a 0.9% saline. […] The locomotion time on the rod was evaluated by measuring the time required for the mice to fall from the rotating rod within a record time of 300 seconds. Moreover, even after the mice had fallen from the rod, they were forced to continue their activity immediately after the falling, so that a total number of the activities from falling from the rod to holding on to the rod for 300 seconds (a number of falls and flips) was measured and evaluated. The data of the test of motor function impairment were analyzed according to a non-parametric method using a Kruskal-Wallis test. All of other data were analyzed according to a one-way ANOVA method using a Newman-Keulis test. […]

DNA polymerase α = target: T1, DNA polymerase α (Homo sapiens, UniProt P09884); conditions: Murakami-Murofushi et al. 1992; cited from earlier work
T1 sequence (P09884 1-1462): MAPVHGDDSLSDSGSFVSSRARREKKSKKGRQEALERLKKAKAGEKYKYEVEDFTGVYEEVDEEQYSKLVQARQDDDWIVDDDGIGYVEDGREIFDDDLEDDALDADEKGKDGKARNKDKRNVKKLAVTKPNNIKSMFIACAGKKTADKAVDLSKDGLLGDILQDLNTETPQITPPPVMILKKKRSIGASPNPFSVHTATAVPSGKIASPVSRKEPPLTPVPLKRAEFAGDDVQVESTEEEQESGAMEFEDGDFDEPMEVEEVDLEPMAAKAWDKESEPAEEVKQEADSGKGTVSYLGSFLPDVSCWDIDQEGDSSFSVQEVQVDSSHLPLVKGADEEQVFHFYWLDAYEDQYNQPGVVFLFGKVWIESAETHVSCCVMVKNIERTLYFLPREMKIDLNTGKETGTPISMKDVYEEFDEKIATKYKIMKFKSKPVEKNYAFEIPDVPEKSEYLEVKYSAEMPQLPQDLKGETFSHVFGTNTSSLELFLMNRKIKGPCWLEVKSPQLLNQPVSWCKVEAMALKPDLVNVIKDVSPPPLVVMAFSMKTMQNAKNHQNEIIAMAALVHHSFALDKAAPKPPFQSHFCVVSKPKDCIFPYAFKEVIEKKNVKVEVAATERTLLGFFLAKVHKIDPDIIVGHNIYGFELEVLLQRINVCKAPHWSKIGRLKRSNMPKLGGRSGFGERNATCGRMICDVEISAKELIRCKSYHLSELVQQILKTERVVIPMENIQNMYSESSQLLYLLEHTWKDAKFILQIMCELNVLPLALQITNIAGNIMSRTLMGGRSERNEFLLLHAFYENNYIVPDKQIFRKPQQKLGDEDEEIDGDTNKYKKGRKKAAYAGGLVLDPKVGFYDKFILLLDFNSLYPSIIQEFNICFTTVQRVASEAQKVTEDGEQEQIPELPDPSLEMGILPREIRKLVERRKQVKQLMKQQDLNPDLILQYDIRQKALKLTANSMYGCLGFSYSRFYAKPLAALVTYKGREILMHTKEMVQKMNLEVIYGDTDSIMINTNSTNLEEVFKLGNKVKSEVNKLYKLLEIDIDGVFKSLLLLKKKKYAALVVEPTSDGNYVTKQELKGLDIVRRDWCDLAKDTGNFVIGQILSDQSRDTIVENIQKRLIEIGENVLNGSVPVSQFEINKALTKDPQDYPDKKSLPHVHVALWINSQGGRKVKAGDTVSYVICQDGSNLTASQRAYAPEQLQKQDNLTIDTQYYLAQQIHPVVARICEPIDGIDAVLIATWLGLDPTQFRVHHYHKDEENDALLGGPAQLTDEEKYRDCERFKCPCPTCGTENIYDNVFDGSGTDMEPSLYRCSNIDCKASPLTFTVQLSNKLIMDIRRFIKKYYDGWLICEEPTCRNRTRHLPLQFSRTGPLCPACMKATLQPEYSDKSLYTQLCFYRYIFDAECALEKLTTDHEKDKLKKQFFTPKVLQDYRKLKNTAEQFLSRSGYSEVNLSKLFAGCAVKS

cultured animal cells = conditions: Murakami-Murofushi et al. 1992; cited from earlier work

Row | Structure (SMILES) | level of myelin (Black Gold staining) versus control mouse [1] | demyelination level in corpus callosum (Black Gold II staining) [2] | nerve inflammation (gene expression by Q-PCR) [3] | motor function impairment (rotarod) [4] | activity of DNA polymerase α (DNA polymerase α) | proliferation of cultured animal cells (cultured animal cells)
1 | CCCCCCCCC=CCCCCCCCC(=O)OCC1COP(=O)(O)C1 (stereo not shown) [2 ccPA (18:1), oleoyl 2-carba-cPA] | the same results as in the case of cPA (16:0) and 2 ccPA (16:1) were obtained |  |  |  |  | 
2 | CCCCCC/C=C\CCCCCCCC(=O)OCC1COP(=O)(O)C1 (stereo not shown) [2 ccPA, palmitoleoyl 2-carba-cPA] | higher than the level of myelin in a control mouse | demyelination is suppressed | nerve inflammation is suppressed | motor function impairment is improved |  | 
3 | CCCCCC[C@@H]1C[C@@H]1CCCCCCCC(=O)OC[C@@H]1COP(=O)([O-])O1.[Na+] [PHYLPA] |  |  |  |  | suppressing the activity of DNA polymerase α | suppressing proliferation of cultured animal cells
